Measured values: ChEMBL document CHEMBL5042472, “Design, Synthesis, and Biological Evaluation of a Novel Photocaged PI3K Inhibitor toward Precise Cancer Treatment” (J Med Chem, 2021)

Tests used:
HGC-27 = assay: Antiproliferative activity against human HGC-27 cells assessed as reduction in cell viability incubated in dark for 96 hrs by MTT assay; assay type: functional, cell-based; conditions: HGC-27, 96 h
AGS = assay: Antiproliferative activity against human AGS cells assessed as reduction in cell viability incubated in dark for 96 hrs by MTT assay; assay type: functional, cell-based
[1] = Retention time of the compound by HPLC analysis; assay type: physicochemical
[2] = Stability in rat liver microsomes assessed as half life at 1 uM in presence of NADPH by LC-MS/MS analysis; assay type: ADME, Microsome
MG-63 = assay: Antiproliferative activity against human MG-63 cells assessed as reduction in cell viability incubated in dark for 96 hrs by MTT assay; assay type: functional, cell-based; conditions: MG-63, 96 h
HCT-116 = assay: Antiproliferative activity against human HCT-116 cells assessed as reduction in cell viability incubated in dark for 96 hrs by MTT assay; assay type: functional, cell-based; conditions: HCT-116, 96 h
[3] = Plasma protein binding in rat at 1 uM by LC-MS/MS analysis; assay type: ADME, cell-free; conditions: read-out: PPB (converted)
[4] = Stability in rat plasma assessed as half life at 1 uM measured upto 120 min by LC-MS/MS analysis; assay type: ADME, cell-free
[5] = Stability in dog liver microsomes assessed as half life at 1 uM in presence of NADPH measured upto 120 min by LC-MS/MS analysis; assay type: ADME, Canis lupus familiaris, Microsome
[6] = Apparent permeability across apical to basolateral side in human Caco-2 cells at 10 uM incubated for 2 hrs by LC-MS/MS analysis; assay type: ADME, cell-based
[7] = Apparent permeability across basolateral to apical side in human Caco-2 cells at 10 uM incubated for 2 hrs by LC-MS/MS analysis; assay type: ADME, cell-based
MGC-803 = assay: Antiproliferative activity against human MGC-803 cells assessed as reduction in cell viability incubated in dark for 96 hrs by MTT assay; assay type: functional, cell-based; conditions: MGC-803, 96 h
[8] = Stability in dog plasma assessed as half life at 1 uM measured upto 120 min by LC-MS/MS analysis; assay type: ADME, cell-free, Canis lupus familiaris
BGC-823 = assay: Antiproliferative activity against human BGC-823 cells assessed as reduction in cell viability incubated in dark for 96 hrs by MTT assay; assay type: functional, cell-based; conditions: BGC-823, 96 h
[9] = Plasma protein binding in dog at 1 uM by LC-MS/MS analysis; assay type: ADME, cell-free, Canis lupus familiaris; conditions: read-out: PPB (converted)

With `COc1ncc(-c2cc(OC3CCOCC3)c3ncnc(C)c3c2)cc1NS(=O)(=O)c1ccc(F)cc1F` the IC50 (HGC-27) was 0.76 nM, the IC50 (AGS) was 6.3 nM and the Retention_time [1] was 5.2 min. The half-life at 1 µM [2] was 1.73 h, the IC50 (MG-63) was 5.7 nM and the IC50 (HCT-116) was 23.4 nM. For the same compound, the fraction unbound at 1 µM [3] was 0.017, the half-life at 1 µM [4] was over 2 h and the half-life at 1 µM [5] was over 2 h. The Papp A→B at 2 h, 10 µM [6] was 21.2 ×10⁻⁶ cm/s, the Papp B→A at 2 h, 10 µM [7] was 26.5 ×10⁻⁶ cm/s and the IC50 (MGC-803) was 14.8 nM. The half-life at 1 µM [8] was over 2 h, the IC50 (BGC-823) was 18.6 nM and the fraction unbound at 1 µM [9] was 0.017.
